Measured values published in the NIST ThermoML archive (doi:10.1016/j.fluid.2018.10.006).

Settings: Fluid (supercritical or subcritical phases), Coaxial cylinder method

CCCCCC [hexane]
Settings	thermal conductivity [W/m/K]
511.55 K, 5000 kPa	0.07163
511.55 K, 5100 kPa	0.07163
511.55 K, 5300 kPa	0.07217
511.55 K, 5500 kPa	0.0724
511.55 K, 5800 kPa	0.07283
511.55 K, 6000 kPa	0.07313
511.55 K, 6200 kPa	0.07344
511.55 K, 6400 kPa	0.07374
511.55 K, 6600 kPa	0.07406
511.55 K, 6800 kPa	0.07437
511.55 K, 6900 kPa	0.07456
511.55 K, 7100 kPa	0.07481
511.55 K, 7200 kPa	0.07501
511.55 K, 7300 kPa	0.07513
511.55 K, 7500 kPa	0.07618
511.55 K, 7800 kPa	0.07658
511.55 K, 8000 kPa	0.07685
511.55 K, 8200 kPa	0.07712
511.55 K, 8300 kPa	0.07719
511.55 K, 8400 kPa	0.07733
511.55 K, 8500 kPa	0.07746
511.55 K, 8600 kPa	0.0776
511.55 K, 8700 kPa	0.07767
511.55 K, 9000 kPa	0.07803
511.55 K, 9100 kPa	0.07815
511.55 K, 9200 kPa	0.07822
511.55 K, 9300 kPa	0.07828
511.55 K, 9400 kPa	0.07837
511.55 K, 9700 kPa	0.0787
511.55 K, 10000 kPa	0.07902
511.79 K, 1600 kPa	0.03961
511.79 K, 1800 kPa	0.04006
511.79 K, 1900 kPa	0.04052
511.79 K, 2000 kPa	0.041
511.79 K, 2090 kPa	0.04133
511.79 K, 2100 kPa	0.04148
511.79 K, 2110 kPa	0.04151
511.79 K, 2200 kPa	0.04198
511.79 K, 2300 kPa	0.0427
511.79 K, 2400 kPa	0.04354
511.79 K, 2500 kPa	0.04428
511.79 K, 2600 kPa	0.04543
511.79 K, 2700 kPa	0.04664
511.79 K, 2800 kPa	0.04819
511.79 K, 2817 kPa	0.04857
511.79 K, 2911 kPa	0.05076
511.79 K, 2958 kPa	0.052
511.79 K, 2987 kPa	0.05281
511.79 K, 3000 kPa	0.05337
511.79 K, 3049 kPa	0.05564
511.79 K, 3076 kPa	0.05734
511.79 K, 3093 kPa	0.05872
511.79 K, 3101 kPa	0.05933
511.79 K, 3113 kPa	0.06039
511.79 K, 3121 kPa	0.06126
511.79 K, 3133 kPa	0.06272
511.79 K, 3143 kPa	0.06414
511.79 K, 3151 kPa	0.06537
511.79 K, 3156 kPa	0.06613
511.79 K, 3163 kPa	0.06743
511.79 K, 3167 kPa	0.06811
511.79 K, 3169 kPa	0.06851
511.79 K, 3172 kPa	0.06906
511.79 K, 3175 kPa	0.06962
511.79 K, 3177 kPa	0.07014
511.79 K, 3179 kPa	0.07048
511.79 K, 3181 kPa	0.07092
511.79 K, 3183 kPa	0.07134
511.79 K, 3185 kPa	0.07166
511.79 K, 3186 kPa	0.07193
511.79 K, 3188 kPa	0.07227
511.79 K, 3189 kPa	0.07257
511.79 K, 3190 kPa	0.07273
511.79 K, 3191 kPa	0.07304
511.79 K, 3192 kPa	0.07319
511.79 K, 3193 kPa	0.07344
511.79 K, 3194 kPa	0.07367
511.79 K, 3195 kPa	0.07382
511.79 K, 3196 kPa	0.07398
511.79 K, 3197 kPa	0.07424
511.79 K, 3198 kPa	0.07446
511.79 K, 3199 kPa	0.07463
511.79 K, 3200 kPa	0.07479
511.79 K, 3202 kPa	0.07528
511.79 K, 3204 kPa	0.07561
511.79 K, 3205 kPa	0.07578
511.79 K, 3206 kPa	0.07595
511.79 K, 3209 kPa	0.07635
511.79 K, 3212 kPa	0.07676
511.79 K, 3214 kPa	0.077
511.79 K, 3216 kPa	0.07724
511.79 K, 3219 kPa	0.07745
511.79 K, 3221 kPa	0.07749
511.79 K, 3223 kPa	0.07756
511.79 K, 3226 kPa	0.07759
511.79 K, 3231 kPa	0.07766
511.79 K, 3234 kPa	0.07766
511.79 K, 3236 kPa	0.07745
511.79 K, 3237 kPa	0.07745
511.79 K, 3240 kPa	0.07732
511.79 K, 3243 kPa	0.07697
511.79 K, 3246 kPa	0.07663
511.79 K, 3247 kPa	0.07629
511.79 K, 3251 kPa	0.07496
511.79 K, 3253 kPa	0.07496
511.79 K, 3256 kPa	0.07463
511.79 K, 3257 kPa	0.07431
511.79 K, 3264 kPa	0.07399
511.79 K, 3265 kPa	0.07367
511.79 K, 3269 kPa	0.07336
511.79 K, 3270 kPa	0.07336
511.79 K, 3276 kPa	0.07336
511.79 K, 3278 kPa	0.07336
511.79 K, 3280 kPa	0.07336
511.79 K, 3285 kPa	0.07336
511.79 K, 3291 kPa	0.07243
511.79 K, 3293 kPa	0.07243
511.79 K, 3295 kPa	0.07243
511.79 K, 3300 kPa	0.07213
511.79 K, 3301 kPa	0.07183
511.79 K, 3306 kPa	0.07183
511.79 K, 3310 kPa	0.07153
511.79 K, 3313 kPa	0.07123
511.79 K, 3315 kPa	0.07123
511.79 K, 3319 kPa	0.07122
511.79 K, 3321 kPa	0.07122
511.79 K, 3325 kPa	0.07122
511.79 K, 3327 kPa	0.07122
511.79 K, 3330 kPa	0.07122
511.79 K, 3332 kPa	0.07122
511.79 K, 3335 kPa	0.07122
511.79 K, 3340 kPa	0.07122
511.79 K, 3346 kPa	0.07122
511.79 K, 3350 kPa	0.07123
511.79 K, 3353 kPa	0.07123
511.79 K, 3355 kPa	0.07123
511.79 K, 3360 kPa	0.07123
511.79 K, 3365 kPa	0.07064
511.79 K, 3367 kPa	0.07064
511.79 K, 3368 kPa	0.07064
511.79 K, 3370 kPa	0.07064
511.79 K, 3375 kPa	0.07064
511.79 K, 3380 kPa	0.07064
511.79 K, 3385 kPa	0.07064
511.79 K, 3390 kPa	0.07064
511.79 K, 3395 kPa	0.07064
511.79 K, 3400 kPa	0.07064
511.79 K, 3410 kPa	0.07064
511.79 K, 3420 kPa	0.07065
511.79 K, 3440 kPa	0.07065
511.79 K, 3460 kPa	0.07065
511.79 K, 3500 kPa	0.07041
511.79 K, 3600 kPa	0.06993
511.79 K, 3657 kPa	0.06978
511.79 K, 3700 kPa	0.06973
511.79 K, 3750 kPa	0.06973
511.79 K, 3800 kPa	0.06973
511.79 K, 3850 kPa	0.06973
511.79 K, 3900 kPa	0.06973
511.79 K, 3950 kPa	0.06975
511.79 K, 3980 kPa	0.06975
511.79 K, 4000 kPa	0.06988
511.79 K, 4030 kPa	0.06995
511.79 K, 4100 kPa	0.07011
